Measurements reported in patent US6737383B1, “Herbicidal oxadiazolidines” (priority 1999, dated 2004).

Assays:
soybean = assay: Test B pre/postemergence soybean; format: in vivo, Glycine max
How it was run: (§1)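 Herbicidal effect was estimated by eye on a ten-point control scale after plants spent twelve to sixteen days in a greenhouse following soil or foliar treatment. Foliar sprays targeted plants at one to four leaves; all doses were formulated in a non-phytotoxic solvent with surfactant.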

velvetleaf = assay: Test B pre/postemergence velvetleaf; format: in vivo, Abutilon theophrasti
How it was run: as §1

smallflower flatsedge = assay: Test B flood test smallflower flatsedge; format: in vivo, Cyperus difformis
How it was run: (§2)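 Each value is a visual injury score relative to controls, with 10 meaning complete control and 0 no effect. Evaluation took place twelve to sixteen days after the 2-leaf-stage plants were treated and kept in the greenhouse.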

duck salad = assay: Test B flood test duck salad; format: in vivo, Heteranthera limosa
How it was run: as §2

[1] = Preemergence, Rate 62 g/ha, scale of 0 to 10 where 0 is no effect and 10 is complete control
[2] = Preemergence, Rate 250 g/ha, scale 0 to 10, 0 is no effect, 10 is complete control
[3] = Preemergence, Rate 500 g/ha, scale 0 to 10 (0 no effect, 10 complete control)
[4] = Rate 62 g/ha, Postemergence, scale of 0 to 10 where 0 is no effect and 10 is complete control
[5] = Rate 125 g/ha, Postemergence, scale 0 to 10
[6] = Rate 62 g/ha, headed Pre-emergence (flood test species), scale 0 to 10 (0 no effect, 10 complete control)
[7] = Rate 125 g/ha, Pre-emergence, flood test species, scale 0 to 10 where 0 is no effect and 10 is complete control
[8] = Rate 250 g/ha, Pre-emergence, flood-test species, scale 0 to 10, 0 is no effect, 10 is complete control
[9] = Rate 500 g/ha, Pre-emergence, flood test species, scale 0 to 10 (0 no effect, 10 complete control)
[10] = Postemergence, Rate 31 g/ha, visual rating, scale 0 to 10 (0 no effect, 10 complete control)
[11] = Preemergence, Rate 250 g/ha, scale of 0 to 10 where 0 is no effect and 10 is complete control
[12] = Rate 62 g/ha, Postemergence, scale 0 to 10, 0 no effect, 10 complete control
[13] = Rate 125 g/ha, Postemergence, scale of 0 to 10 where 0 is no effect and 10 is complete control
[14] = Rate 250 g/ha, Postemergence, scale of 0 to 10 where 0 is no effect and 10 is complete control
[15] = Rate 31 g/ha, Pre-emergence section (flood test species), scale 0 to 10
[16] = Postemergence, Rate 250 g/ha, scale 0 to 10
[17] = Postemergence, Rate 500 g/ha, scale of 0 to 10 where 0 is no effect and 10 is complete control
[18] = Preemergence, Rate 62 g/ha, scale 0 to 10 (0 no effect, 10 complete control)
[19] = Preemergence, Rate 125 g/ha, scale of 0 to 10 where 0 is no effect and 10 is complete control
[20] = Preemergence, Rate 500 g/ha, scale 0 to 10, 0 is no effect, 10 is complete control
[21] = Rate 125 g/ha, Postemergence, scale 0 to 10, 0 is no effect, 10 is complete control
[22] = Postemergence block (flood test species), Rate 250 g/ha, scale 0 to 10
[23] = Postemergence section (flood test species), Rate 500 g/ha, scale of 0 to 10 where 0 is no effect and 10 is complete control
[24] = Rate 125 g/ha, Postemergence section (flood test species), scale 0 to 10, 0 is no effect, 10 is complete control
[25] = Postemergence, Rate 250 g/ha, scale 0 to 10, 0 is no effect, 10 is complete control
[26] = Preemergence, Rate 500 g/ha, scale of 0 to 10 where 0 is no effect and 10 is complete control
[27] = Rate 62 g/ha, flood test species, Pre-emergence, visual evaluation after twelve to sixteen days
[28] = Rate 125 g/ha, under heading Pre-emergence, flood test species, visual evaluation after twelve to sixteen days

CCN(Cc1ccncc1)C(=O)n1oc(=O)n(C(C)C)c1=O [Compound 189]
Soybean plant response rating (soybean; [1]): 0 | Soybean plant response rating (0 to 10 scale) (soybean; Preemergence, Rate 125 g/ha, 0 is no effect, 10 is complete control): 0 | Soybean plant response rating (soybean; [2]): 0 | Soybean plant response rating (soybean; [3]): 0 | Soybean plant response rating (soybean; [4]): 0 | Soybean plant response rating (soybean; [5]): 0 | Plant response rating (0 to 10; 0 is no effect, 10 is complete control), Soybean (soybean; Rate 250 g/ha, Postemergence): 0 | Soybean plant response rating (soybean; Rate 500 g/ha, Postemergence, scale 0 to 10): 0 | Velvetleaf plant response rating (velvetleaf; [1]): 0 | Velvetleaf plant response rating (velvetleaf; [2]): 0 | Velvetleaf plant response rating (velvetleaf; [3]): 0 | Velvetleaf plant response rating (velvetleaf; [4]): 0 | Velvetleaf plant response rating (velvetleaf; [5]): 0 | Plant response rating (0 to 10; 0 is no effect, 10 is complete control), Velvetleaf (velvetleaf; Rate 250 g/ha, Postemergence): 0 | S. Flatsedge plant response rating (smallflower flatsedge; [6]): 0 | S. Flatsedge plant response rating (smallflower flatsedge; [7]): 0 | S. Flatsedge plant response rating (smallflower flatsedge; [8]): 0 | S. Flatsedge plant response rating (smallflower flatsedge; [9]): 0 | Ducksalad plant response rating (duck salad; [6]): 0 | Ducksalad plant response rating (duck salad; [7]): 0 | Ducksalad plant response rating (duck salad; [8]): 0 | Plant response rating, Ducksalad (duck salad; Rate 500 g/ha, headed Pre-emergence (flood test species), scale 0 to 10 (0 no effect, 10 complete control)): 0

COCC(C)N(C(=O)n1oc(=O)n(-c2ccccc2C)c1=O)c1ccc(F)cc1 (stereo not drawn) [Compound 324]
Soybean plant response rating (soybean; [10]): 0 | Soybean plant response rating (soybean; [1]): 0 | Soybean plant response rating (0 to 10 scale) (soybean; Preemergence, Rate 125 g/ha): 0 | Soybean plant response rating (soybean; [11]): 0 | Soybean plant response rating (soybean; [12]): 0 | Soybean plant response rating (soybean; [13]): 1 | Plant response rating, Soybean (soybean; [14]): 1 | Velvetleaf plant response rating (velvetleaf; [10]): 0 | Velvetleaf plant response rating (velvetleaf; [1]): 0 | Velvetleaf plant response rating (0 to 10 scale) (velvetleaf; Preemergence, Rate 125 g/ha): 0 | Velvetleaf plant response rating (velvetleaf; [11]): 0 | Velvetleaf plant response rating (velvetleaf; [12]): 0 | Velvetleaf plant response rating (velvetleaf; [13]): 0 | Plant response rating, Velvetleaf (velvetleaf; [14]): 0 | S. Flatsedge plant response rating (smallflower flatsedge; [15]): 0 | S. Flatsedge plant response rating (smallflower flatsedge; [6]): 0 | S. Flatsedge plant response rating (smallflower flatsedge; [7]): 0 | S. Flatsedge plant response rating (smallflower flatsedge; [8]): 0 | Ducksalad plant response rating (duck salad; [15]): 0 | Ducksalad plant response rating (duck salad; [6]): 0 | Ducksalad plant response rating (duck salad; [7]): 0 | Ducksalad plant response rating (duck salad; [8]): 0

C=C[Si](C)(C)Cn1c(=O)on(C(=O)N(c2ccc(Cl)cc2)C(C)C)c1=O [Compound 425]
Soybean plant response rating (soybean; [16]): 2 | Soybean plant response rating (soybean; [17]): 3 | Plant response rating, Soybean (soybean; [18]): 0 | Plant response rating, Soybean (soybean; [19]): 0 | Soybean plant response rating (soybean; [2]): 0 | Soybean plant response rating (soybean; [20]): 0 | Soybean plant response rating (soybean; [21]): 1 | Velvetleaf plant response rating (velvetleaf; [16]): 0 | Velvetleaf plant response rating (velvetleaf; [17]): 2 | Plant response rating, Velvetleaf (velvetleaf; [18]): 0 | Plant response rating, Velvetleaf (velvetleaf; [19]): 0 | Velvetleaf plant response rating (velvetleaf; [2]): 2 | Velvetleaf plant response rating (velvetleaf; [20]): 6 | Velvetleaf plant response rating (velvetleaf; [21]): 0 | S. Flatsedge plant response rating (smallflower flatsedge; [22]): 2 | S. Flatsedge plant response rating (smallflower flatsedge; [23]): 6 | S. Flatsedge plant response rating (smallflower flatsedge; [24]): 0 | Ducksalad plant response rating (duck salad; [22]): 0 | Ducksalad plant response rating (duck salad; [23]): 0 | Ducksalad plant response rating (duck salad; Rate 62 g/ha, Postemergence (flood test species), scale of 0 to 10 where 0 is no effect and 10 is complete control): 0 | Ducksalad plant response rating (duck salad; [24]): 0

CC(C)N(C(=O)n1oc(=O)n(C(CF)CF)c1=O)c1ccc(F)cc1 [Compound 390]
Plant response rating, Soybean (soybean; [25]): 3 | Soybean plant response rating (soybean; [17]): 5 | Plant response rating, Soybean (soybean; [18]): 0 | Plant response rating, Soybean (soybean; [19]): 0 | Soybean plant response rating (soybean; [11]): 2 | Soybean plant response rating (soybean; [26]): 3 | Soybean plant response rating (soybean; [4]): 2 | Plant response rating, Velvetleaf (velvetleaf; [25]): 7 | Velvetleaf plant response rating (velvetleaf; [17]): 8 | Plant response rating, Velvetleaf (velvetleaf; [18]): 2 | Plant response rating, Velvetleaf (velvetleaf; [19]): 4 | Velvetleaf plant response rating (velvetleaf; [11]): 6 | Velvetleaf plant response rating (velvetleaf; [26]): 7 | Velvetleaf plant response rating (velvetleaf; [4]): 0 | Plant response rating, S. Flatsedge (0 to 10 scale, 0 is no effect, 10 is complete control) (smallflower flatsedge; [27]): 0 | S. Flatsedge plant response rating (0 to 10 scale, 0 is no effect, 10 is complete control) (smallflower flatsedge; [28]): 0 | S. Flatsedge plant response rating (smallflower flatsedge; [8]): 0 | S. Flatsedge plant response rating (smallflower flatsedge; [9]): 7 | Plant response rating, Ducksalad (0 to 10 scale, 0 is no effect, 10 is complete control) (duck salad; [27]): 0 | Ducksalad plant response rating (0 to 10 scale, 0 is no effect, 10 is complete control) (duck salad; [28]): 0 | Ducksalad plant response rating (duck salad; [8]): 0 | Ducksalad plant response rating (duck salad; [9]): 3
